According to patent publication US9255132B2, “Angiopoietin derived peptides” (Compugen Ltd., priority 2008, dated 2016):
Residues, ends and D or L forms follow the SMILES beside them.

How the values were obtained:
recombinant human Ang1 = molecular target: T1, recombinant human Ang1 (Homo sapiens, UniProt Q15389); assay: BIACORE (SPR) binding of peptides to immobilized recombinant Ang1; conditions: CM5 chip, 10-50 μM peptide
T1 construct: purchased R&D Systems 923-AN-025/CF
T1 sequence (Q15389 16-498): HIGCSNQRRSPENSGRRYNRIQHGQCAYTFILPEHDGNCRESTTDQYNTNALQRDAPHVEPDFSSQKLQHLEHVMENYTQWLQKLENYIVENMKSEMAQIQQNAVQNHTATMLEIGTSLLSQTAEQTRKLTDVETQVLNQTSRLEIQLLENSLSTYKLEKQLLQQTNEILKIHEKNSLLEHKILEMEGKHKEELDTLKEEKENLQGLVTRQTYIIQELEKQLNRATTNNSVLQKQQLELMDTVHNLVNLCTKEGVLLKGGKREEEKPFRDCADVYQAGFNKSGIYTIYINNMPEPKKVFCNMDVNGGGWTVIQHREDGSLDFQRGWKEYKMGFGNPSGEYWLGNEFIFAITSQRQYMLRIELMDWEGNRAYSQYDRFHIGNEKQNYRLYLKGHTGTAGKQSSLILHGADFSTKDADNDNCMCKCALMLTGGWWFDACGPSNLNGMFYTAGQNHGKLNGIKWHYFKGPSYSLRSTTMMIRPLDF
Text: (§1) The capability of CGEN-H2 [SEQ ID NO: 1], CGEN-H3 [SEQ ID NO: 2], CGEN-A8 [SEQ ID NO: 3], CGEN-H7 [SEQ ID NO: 4], CGEN-G4 [SEQ ID NO: 5], CGEN-G6 [SEQ ID NO: 6], CGEN-F9 [SEQ ID NO: 7], CGEN-F12 [SEQ ID NO: 8], CGEN-C6-30 [SEQ ID NO: 9], CGEN-All [SEQ ID NO: 10], and CGEN-G2 [SEQ ID NO: 11] to specifically bind to recombinant Ang1, Ang2, and Ang4 was investigated using the BIACORE technology, measuring protein-protein interaction and binding affinity (Wendler et al 2005, Anal Bioanal Chem, 381: 1056-1064). The technology is based on surface plasmon resonance (SPR), an optical phenomenon that enables detection of unlabeled interactants in real time. The SPR-based biosensors can be used in determination of active concentration, screening and characterization in terms of both affinity and kinetics.
(§2) Peptide-protein binding was analyzed using surface plasmon resonance. Analysis of the to interaction between CGEN-H2 [SEQ ID NO: 1], CGEN-H3 [SEQ ID NO: 2], CGEN-A8 [SEQ ID NO: 3], CGEN-H7 [SEQ ID NO: 4], CGEN-G4 [SEQ ID NO: 5], CGEN-G6 [SEQ ID NO: 6], CGEN-F9 [SEQ ID NO: 7], CGEN-F12 [SEQ ID NO: 8], CGEN-C6 [SEQ ID NO: 9], CGEN-A11 [SEQ ID NO: 10], and CGEN-G2 [SEQ ID NO: 11] peptides and recombinant human Ang1 carrier-free (R&D Systems, Cat#923-AN-025/CF, Lot#FHW1507031), human Ang2 carrier-free (R&D Systems, Cat#623-AN-025/CF, Lot#BNO0457121), and human Ang4 carrier-free (R&D Systems, Cat#964-AN-025/CF, Lot#ELM025121) was conducted using the BIAcore biosensor (Pharmacia Biosensor, Uppsala, Sweden). The recombinant Ang1, Ang2, and Ang4 were immobilized directly to a CM5 sensor chip. Solutions containing 10-50 μM of CGEN-H2 [SEQ ID NO: 1], CGEN-H3 [SEQ ID NO: 2], CGEN-A8 [SEQ ID NO: 3], CGEN-H7 [SEQ ID NO: 4], CGEN-G4 [SEQ ID NO: 5], CGEN-G6 [SEQ ID NO: 6], CGEN-F9 [SEQ ID NO: 7], CGEN-F12 [SEQ ID NO: 8], CGEN-C6 [SEQ ID NO: 9], CGEN-A11 [SEQ ID NO: 10], and CGEN-G2 [SEQ ID NO: 11] peptides were injected into the sample chamber of the BIACORE device at a rate of […] and the interaction was monitored using surface plasmon resonance.
(§3) Solutions containing different concentrations of CGEN-G6 [SEQ ID NO: 6], CGEN-F9 [SEQ ID NO: 7], CGEN-F12 [SEQ ID NO: 8], CGEN-A11 [SEQ ID NO: 10], and CGEN-G2 [SEQ ID NO: 11] peptides (as indicated in Table 2) were injected into the sample chamber of the BIACORE device at a rate of […] and the interaction was monitored using surface plasmon resonance. As a background, the solutions were also injected onto an empty flow cell with no immobilized ligand and the in binding levels achieved were subtracted. Data was analyzed using BIAevaluation software. The affinity constant of the interaction between CGEN-G6 [SEQ ID NO: 6], CGEN-F9 [SEQ ID NO: 7], CGEN-F12 [SEQ ID NO: 8], CGEN-C6 [SEQ ID NO: 9], CGEN-A11 [SEQ ID NO: 10], and CGEN-G2 [SEQ ID NO: 11] and Ang1, Ang2, or Ang4 was determined by direct kinetic analysis. The 1:1 Langmuir binding model was used to fit kinetic data.
(§4) Table 2 summarizes results of analysis of CGEN-G6 [SEQ ID NO: 6], CGEN-F9 [SEQ ID NO: 7], CGEN-F12 [SEQ ID NO: 8], CGEN-A11 [SEQ ID NO: 10], and CGEN-G2 [SEQ ID NO: 11] interaction with Ang1, Ang2, or Ang4. Kinetic measurements were done at the indicated concentration range, and they are presented as KD (M). CGEN-F12 [SEQ ID NO: 8] bound to Ang1 and Ang4 with high affinity. The specificity of this binding is not clear.

human Ang2 = molecular target: T2, human Ang2 (Homo sapiens, UniProt O15123); assay: BIACORE (SPR) binding of peptides to immobilized recombinant Ang2; conditions: CM5 chip, 10-50 μM peptide
T2 construct: purchased R&D Systems 623-AN-025/CF
T2 sequence (O15123 19-496): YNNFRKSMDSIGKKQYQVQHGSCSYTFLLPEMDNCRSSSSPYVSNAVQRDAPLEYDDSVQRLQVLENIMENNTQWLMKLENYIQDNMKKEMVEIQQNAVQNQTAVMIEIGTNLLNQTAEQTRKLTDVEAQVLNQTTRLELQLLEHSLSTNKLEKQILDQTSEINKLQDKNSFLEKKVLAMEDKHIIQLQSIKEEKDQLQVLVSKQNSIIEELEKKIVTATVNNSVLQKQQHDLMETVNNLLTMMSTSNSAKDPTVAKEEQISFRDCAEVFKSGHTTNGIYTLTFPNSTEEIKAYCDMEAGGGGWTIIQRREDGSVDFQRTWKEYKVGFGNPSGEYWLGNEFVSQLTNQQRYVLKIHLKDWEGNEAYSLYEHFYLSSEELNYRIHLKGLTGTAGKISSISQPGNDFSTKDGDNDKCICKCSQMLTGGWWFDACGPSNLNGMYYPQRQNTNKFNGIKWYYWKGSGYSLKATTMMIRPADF
Text: as §1, §2, §3, §4

Row | Compound | binding to immobilized Ang1 (in words) (recombinant human Ang1) | binding to immobilized Ang2 (in words) (human Ang2)
1 | CC(=O)N[C@@H](CCC(=O)O)C(=O)N[C@H](C(=O)N[C@@H](Cc1ccccc1)C(=O)N[C@@H](CC(C)C)C(=O)N[C@@H](CO)C(=O)N[C@H](C(=O)N[C@@H](CC(N)=O)C(=O)N[C@@H](CCCCN)C(=O)N[C@@H](CC(C)C)C(=O)N[C@@H](CCC(=O)O)C(=O)N[C@@H](CC(N)=O)C(=O)N[C@@H](CCC(N)=O)C(N)=O)[C@@H](C)O)[C@@H](C)O [CGEN-A11, ETFLSTNKLENQ] (Ac-ETFLSTNKLENQ-NH2) | capable of binding | capable of binding
2 | CC[C@H](C)[C@H](NC(=O)[C@H](C)NC(=O)[C@H](CCCNC(=N)N)NC(=O)[C@H](CCC(=O)O)NC(=O)[C@H](CC(C)C)NC(=O)[C@H](CCCCN)NC(=O)[C@H](CCCCN)NC(=O)[C@H](CC(C)C)NC(=O)[C@H](Cc1c[nH]c2ccccc12)NC(=O)[C@H](CCC(N)=O)NC(=O)[C@@H](NC(=O)[C@H](CC(N)=O)NC(=O)[C@H](CC(N)=O)NC(=O)[C@H](CCC(N)=O)NC(=O)[C@H](CC(C)C)NC(=O)[C@H](C)NC(=O)[C@H](CCC(N)=O)NC(=O)[C@H](CCC(=O)O)NC(=O)[C@H](CC(C)C)NC(=O)[C@H](CCC(N)=O)NC(=O)[C@H](CCCCN)NC(=O)[C@@H](NC(=O)[C@H](CCC(N)=O)NC(=O)[C@H](CCC(N)=O)NC(=O)[C@@H](NC(C)=O)[C@@H](C)O)C(C)C)[C@@H](C)O)C(=O)N[C@@H](CCCCN)C(=O)N[C@H](C(=O)N[C@H](C(=O)N[C@@H](CC(C)C)C(N)=O)[C@@H](C)CC)[C@@H](C)O [CGEN-G2] (Ac-TQQVKQLEQALQNNTQWLKKLERAIKTIL-NH2) | capable of binding | capable of binding
3 | CSCC[C@H](NC(=O)[C@H](CC(C)C)NC(=O)[C@H](CC(=O)O)NC(C)=O)C(=O)N[C@@H](CCC(=O)O)C(=O)N[C@H](C(=O)N[C@H](C(=O)N[C@@H](CC(N)=O)C(=O)N[C@@H](CC(N)=O)C(=O)N[C@@H](CC(C)C)C(=O)N[C@@H](CC(C)C)C(=O)N[C@H](C(=O)N[C@@H](CCSC)C(=O)N[C@@H](CCSC)C(=O)N[C@@H](CO)C(=O)N[C@H](C(=O)N[C@@H](CO)C(=O)N[C@@H](CC(N)=O)C(=O)N[C@@H](CO)C(=O)N[C@@H](C)C(=O)N[C@@H](CCCCN)C(=O)N[C@@H](CC(=O)O)C(N)=O)[C@@H](C)O)[C@@H](C)O)C(C)C)[C@@H](C)O [CGEN-G6] (Ac-DLMETVNNLLTMMSTSNSAKD-NH2) | capable of binding | capable of binding
